Tests used:
Test in all cases: drug sensitivity score (DSS) (DSS (dimensionless)); higher = more sensitive (stronger drug response)
[1] = tested on: OVSAHO
Procedure, shortened: (§1)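 Drugs were pre-plated in 384-well plates at five concentrations covering a 10,000-fold range, and 1 000 – 1 500 cells per well were added from patient-derived cultures or from ovarian cancer cell lines whose shRNA had been induced with 100 ng/ml doxycycline for three days or longer. Incubation lasted three days at 37 °C under 5.0 % CO2. A PHERAstar FS then recorded CellTiter-Glo luminescence as the readout of viability. A drug sensitivity score, calculated as described before, summarised the dose-response curve of every drug.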

[2] = tested on: FIMM-PDC6 (patient-derived ovarian cancer cells); settings: genetic perturbation: none (patient-derived cell culture)
Procedure, shortened: as §1

[3] = tested on: FIMM-PDC4 (patient-derived ovarian cancer cells); settings: genetic perturbation: none (patient-derived cell culture)
Procedure, shortened: as §1

[4] = tested on: Kuramochi
Procedure, shortened: as §1

[5] = tested on: FIMM-PDC7 (patient-derived ovarian cancer cells); settings: genetic perturbation: none (patient-derived cell culture)
Procedure, shortened: as §1

[6] = tested on: FIMM-PDC5 (patient-derived ovarian cancer cells); settings: genetic perturbation: none (patient-derived cell culture)
Procedure, shortened: as §1

[7] = tested on: FIMM-PDC3 (patient-derived ovarian cancer cells); settings: genetic perturbation: none (patient-derived cell culture)
Procedure, shortened: as §1

[8] = tested on: JHOS2
Procedure, shortened: as §1

[9] = tested on: FIMM-PDC1 (patient-derived ovarian cancer cells); settings: genetic perturbation: none (patient-derived cell culture)
Procedure, shortened: as §1

[10] = genetic perturbation: DOX-induced PTK7 shRNA knockdown
[11] = genetic perturbation: DOX-induced control shRNA

Compound | drug sensitivity score [1, 10] | drug sensitivity score [1, 11] | drug sensitivity score [2] | drug sensitivity score [3] | drug sensitivity score [4, 10] | drug sensitivity score [4, 11] | drug sensitivity score [5] | drug sensitivity score [6] | drug sensitivity score [7] | drug sensitivity score [8, 10] | drug sensitivity score [8, 11] | drug sensitivity score [9]
CNC(=O)c1nn(C)c2c1C(C)(C)Cc1cnc(Nc3ccc(N4CCN(C)CC4)cc3)nc1-2 [Milciclib] | 8.1 | 9 | 9.1 | 8.2 | 10.3 | 8 | 7.9 | 10.9 | 9.9 | 6.3 | 12.4 | 12.7
CCCCCCCCCCCCCCCCOP(=O)([O-])OCC[N+](C)(C)C [Miltefosine] | 5.9 | 3.6 | 10.2 | 6.6 | 4.9 | 4.9 | 8.1 | 10.6 | 5.7 | 13 | 5.2 | 2.55
O=C1c2c(O)ccc(O)c2C(=O)c2c(NCCNCCO)ccc(NCCNCCO)c21 [Mitoxantrone] | 5.1 | 3.8 | 4.8 | 5.1 | 2.7 | 2.7 | 3.4 | 6.6 | 6.9 | 5.5 | 7.6 | 4.55
CCS(=O)(=O)Nc1ccc(Oc2ccc(F)cc2F)c(-c2cn(C)c(=O)c3[nH]ccc23)c1 [Mivebresib] | 19.7 | 23.8 | 15.3 | 12.2 | 25.8 | 14.7 | 16.3 | 21.9 | 15.3 | 18.2 | 16.6 | 13.8
Nc1ccccc1NC(=O)c1ccc(CNc2nccc(-c3cccnc3)n2)cc1 [Mocetinostat] | 10 | 3.8 | 8.7 | 7.1 | 9.95 | 4.1 | 7.5 | 12.3 | 9.7 | 8 | 3.4 | 6.35
CCNC(=O)C[C@@H]1N=C(c2ccc(Cl)cc2)c2cc(OC)ccc2-n2c(C)nnc21 [Molibresib] | 6 | 9.4 | 4.2 | 3.3 | 8.65 | 4 | 6.6 | 7.6 | 3.5 | 6.8 | 5.3 | 1.7
N#CCNC(=O)c1ccc(-c2ccnc(Nc3ccc(N4CCOCC4)cc3)n2)cc1 [Momelotinib] | 3.6 | 1.7 | 4.2 | 4.1 | 0.75 | 2.1 | 8 | 7.2 | 1.9 | 8.3 | 6.8 | 0.1
Cc1cc(OCc2nnc(SC3CCCC3)n2-c2cccnc2)ccc1-c1ccc(S(C)(=O)=O)cc1 [NMS-873] | 5.1 | 7.5 | 9.1 | 8.3 | 8.15 | 6.2 | 5 | 5.5 | 9.4 | 7.7 | 5.9 | 7.55
COc1ccc(-c2ccc3ncc4c(c3c2)n(-c2ccc(N3CCNCC3)c(C(F)(F)F)c2)c(=O)n4C)cn1 [NVP-BGT226] | 17.8 | 16.2 | 21.5 | 19.7 | 10.1 | 13.4 | 22.4 | 25.6 | 12.6 | 11 | 15 | 12.2
COc1cc2c(cc1OC(C)C)[C@H](c1ccc(Cl)cc1)N(c1ccc(N(C)C[C@H]3CC[C@H](N4CCN(C)C(=O)C4)CC3)cc1)C(=O)C2 [NVP-CGM097] | 5.2 | 8.5 | 10.9 | 9.2 | 5.75 | 8 | 10 | 15.4 | 7.4 | 5.9 | 6.1 | 5.45
CN[C@@H](C)C(=O)N[C@H](C(=O)N1CCC[C@H]1c1nc(C(=O)c2ccc(F)cc2)cs1)C1CCCCC1 [NVP-LCL161] | 6 | 4.1 | 6.9 | 1.7 | 3.65 | 4.2 | 5.1 | 2.7 | 15.7 | 26 | 20.4 | 14.1
Cn1c(Nc2ccc(C(F)(F)F)cc2)nc2cc(Oc3ccnc(-c4ncc(C(F)(F)F)[nH]4)c3)ccc21 [NVP-RAF265] | 1.5 | 0.3 | 1.3 | 2.9 | 0.1 | < 0 | 2.8 | 14.6 | 6.7 | < 0 | 3.8 | 1.4
CC(=O)c1cc2c(o1)C(=O)c1ccccc1C2=O [Napabucasin] | 18.9 | 16.1 | 14.4 | 15.3 | 16.7 | 17.3 | 17.2 | 13.4 | 21.8 | 22 | 19.2 | 10.8
CC1(C)CCC(c2ccc(Cl)cc2)=C(CN2CCN(c3ccc(C(=O)NS(=O)(=O)c4ccc(N[C@H](CCN5CCOCC5)CSc5ccccc5)c(S(=O)(=O)C(F)(F)F)c4)cc3)CC2)C1 [Navitoclax] | 10.1 | < 0 | 21.9 | 6.2 | 1.8 | 4.3 | 16.4 | 19.5 | 5.7 | 1.1 | < 0 | 4.85
CCOc1cc2ncc(C#N)c(Nc3ccc(OCc4ccccn4)c(Cl)c3)c2cc1NC(=O)/C=C/CN(C)C [Neratinib] | 0.8 | 0.4 | 14.1 | 11.9 | 0.45 | < 0 | 8.3 | 16.1 | 9.5 | 0.6 | 5.2 | 1.15
COC(=O)c1ccc2c(c1)NC(=O)/C2=C(\Nc1ccc(N(C)C(=O)CN2CCN(C)CC2)cc1)c1ccccc1 [Nintedanib] | 9.4 | 1.5 | 1.9 | 8.5 | 7.2 | 2.7 | 1.2 | 9.9 | 2.5 | 4 | 4.4 | 0.25
